20 compounds from the PolyMetriX glass transition set can be followed below.

`*Oc1ccc(S(=O)(=O)c2ccc(Oc3ccc(C(C)(C)c4ccc(*)c(C(OC)(C(F)(F)F)C(F)(F)F)c4)cc3C(OC)(C(F)(F)F)C(F)(F)F)cc2)cc1` (repeat unit) yielded a glass transition temperature of 163.00 °C.

`*Oc1ccc(S(=O)(=O)c2ccc(Oc3ccc(C(C)(C)c4ccc(*)c(C)c4)cc3C)cc2)cc1` (repeat unit) came in with a glass transition temperature of 180.00 °C.

`*Oc1ccc(S(=O)(=O)c2ccc(Oc3ccc(C(C)(C)c4ccc(*)cc4)cc3)c([N+](=O)[O-])c2)cc1[N+](=O)[O-]` (repeat unit) came in with a glass transition temperature of 206.00 °C.

Compound `*Oc1ccc(S(=O)(=O)c2ccc(Oc3ccc(C(C)(C)c4ccc(*)cc4)cc3)cc2)c(N)c1` (repeat unit) had a glass transition temperature of 202.00 °C.

`*Oc1ccc(S(=O)(=O)c2ccc(Oc3ccc(C(C)(C)c4ccc(*)cc4)cc3)cc2)cc1` (repeat unit): the glass transition temperature was determined as 186.00 °C.

The compound `*Oc1ccc(S(=O)(=O)c2ccc(Oc3ccc(C(C)(C)c4ccc(*)cc4)cc3[N+](=O)[O-])cc2)cc1` (repeat unit) came in with a glass transition temperature of 190.00 °C.

On to `*Oc1ccc(S(=O)(=O)c2ccc(Oc3ccc(C(C)(c4ccc(*)cc4)c4ccc(O)cc4)cc3)cc2)cc1` (repeat unit), for which the glass transition temperature came out at 228.00 °C.

`*Oc1ccc(S(=O)(=O)c2ccc(Oc3ccc(C(c4ccc(*)cc4)c4ccccc4C(=O)O)cc3)cc2)cc1` (repeat unit): the glass transition temperature was found to be 223.00 °C.

`*Oc1ccc(S(=O)(=O)c2ccc(Oc3ccc(C4(c5ccc(*)c(C)c5)CCCCC4)cc3C)cc2)cc1` (repeat unit) gave a glass transition temperature of 197.00 °C.

In the case of `*Oc1ccc(S(=O)c2ccc(Oc3ccc(C(C)(C)c4ccc(*)cc4)cc3)cc2)cc1` (repeat unit), the glass transition temperature worked out at 165.00 °C.

`*c1ccc(N(c2ccc(C#N)cc2)c2ccc(N3C(=O)c4ccc(Oc5ccc(C(C)(C)c6ccc(Oc7ccc8c(c7)C(=O)N(*)C8=O)cc6)cc5)cc4C3=O)cc2)cc1` (repeat unit) displayed a glass transition temperature of 230.00 °C.

In the case of `*c1ccc(Oc2ccc(-c3ccc(Oc4ccc(N5C(=O)c6ccc(Oc7ccc(C(C)(C)c8ccc(Oc9ccc%10c(c9)C(=O)N(*)C%10=O)cc8)cc7)cc6C5=O)cc4)cc3)cc2)cc1` (repeat unit), the glass transition temperature worked out at 220.00 °C.

`*c1ccc(Oc2ccc(C(=O)c3cccc(C(=O)c4ccc(Oc5ccc(-c6nc(-c7ccc(-c8nc(*)c(-c9ccccc9)[nH]8)cc7)[nH]c6-c6ccccc6)cc5)cc4)c3)cc2)cc1` (repeat unit) displayed a glass transition temperature of 270.00 °C.

`*c1ccc(Oc2ccc(C(=O)c3cccc(C(=O)c4ccc(Oc5ccc(-c6nc7ccccc7n6-c6ccc(-n7c(*)nc8ccccc87)cc6)cc5)cc4)c3)cc2)cc1` (repeat unit) displayed a glass transition temperature of 219.00 °C.

Compound `*c1ccc(Oc2ccc(S(=O)(=O)c3ccc(Oc4ccc(-c5c6c(c(*)c7ccccc57)C(=O)N(c5ccccc5-c5ccccc5)C6=O)cc4)cc3)cc2)cc1` (repeat unit) returned a glass transition temperature of 278.00 °C.

In turn, `*c1ccc(Oc2ccc(S(=O)(=O)c3ccc(Oc4ccc(-c5c6c(c(*)c7ccccc57)C(=O)N(c5ccccc5C(F)(F)F)C6=O)cc4)cc3)cc2)cc1` (repeat unit) came in with a glass transition temperature of 290.00 °C.

`*c1ccc(Oc2ccc(Sc3ccc(Oc4ccc(-c5ccc(*)s5)cc4C(F)(F)F)cc3)cc2)c(C(F)(F)F)c1` (repeat unit): the glass transition temperature is 142.00 °C.

On to `*c1ccc(Oc2ccc(Sc3ccc(Oc4ccc(-c5cccc(*)n5)cc4C(F)(F)F)cc3)cc2)c(C(F)(F)F)c1` (repeat unit), for which the glass transition temperature came to 144.50 °C.

Consider `*c1ccc(S(=O)(=O)c2ccc(-n3nc(-c4ccccc4)c4cc(Oc5ccc(C(C)(C)c6ccc(Oc7ccc8c(-c9ccccc9)nn(*)c(=O)c8c7)cc6)cc5)ccc4c3=O)cc2)cc1` (repeat unit), for which the glass transition temperature is 210.50 °C.

`*c1ccc2oc3ccc(S(=O)(=O)c4ccc(Oc5ccc(S(*)(=O)=O)cc5)cc4)cc3c2c1` (repeat unit) had a glass transition temperature of 290.00 °C.
